Laboratory results as given in patent US9776995B2, “Bicyclic sulfonamide compounds as sodium channel inhibitors” (AMGEN INC., priority 2013, dated 2017).
Read-outs that look alike come from different tables or passages of the source.

How the values were obtained:
[1] = molecular target: Nav 1.5 (Homo sapiens (Human), UniProt Q14524); experiment: in-vitro Nav 1.5 PX data; conditions: read-out: Nav 1.5 PX IC50
[2] = molecular target: T1, Nav 1.7 (Homo sapiens (Human), UniProt Q15858); experiment: in-vitro Nav 1.7 PX data; format: cell-based; conditions: in-vitro PX data
T1 sequence (Q15858 whole entry): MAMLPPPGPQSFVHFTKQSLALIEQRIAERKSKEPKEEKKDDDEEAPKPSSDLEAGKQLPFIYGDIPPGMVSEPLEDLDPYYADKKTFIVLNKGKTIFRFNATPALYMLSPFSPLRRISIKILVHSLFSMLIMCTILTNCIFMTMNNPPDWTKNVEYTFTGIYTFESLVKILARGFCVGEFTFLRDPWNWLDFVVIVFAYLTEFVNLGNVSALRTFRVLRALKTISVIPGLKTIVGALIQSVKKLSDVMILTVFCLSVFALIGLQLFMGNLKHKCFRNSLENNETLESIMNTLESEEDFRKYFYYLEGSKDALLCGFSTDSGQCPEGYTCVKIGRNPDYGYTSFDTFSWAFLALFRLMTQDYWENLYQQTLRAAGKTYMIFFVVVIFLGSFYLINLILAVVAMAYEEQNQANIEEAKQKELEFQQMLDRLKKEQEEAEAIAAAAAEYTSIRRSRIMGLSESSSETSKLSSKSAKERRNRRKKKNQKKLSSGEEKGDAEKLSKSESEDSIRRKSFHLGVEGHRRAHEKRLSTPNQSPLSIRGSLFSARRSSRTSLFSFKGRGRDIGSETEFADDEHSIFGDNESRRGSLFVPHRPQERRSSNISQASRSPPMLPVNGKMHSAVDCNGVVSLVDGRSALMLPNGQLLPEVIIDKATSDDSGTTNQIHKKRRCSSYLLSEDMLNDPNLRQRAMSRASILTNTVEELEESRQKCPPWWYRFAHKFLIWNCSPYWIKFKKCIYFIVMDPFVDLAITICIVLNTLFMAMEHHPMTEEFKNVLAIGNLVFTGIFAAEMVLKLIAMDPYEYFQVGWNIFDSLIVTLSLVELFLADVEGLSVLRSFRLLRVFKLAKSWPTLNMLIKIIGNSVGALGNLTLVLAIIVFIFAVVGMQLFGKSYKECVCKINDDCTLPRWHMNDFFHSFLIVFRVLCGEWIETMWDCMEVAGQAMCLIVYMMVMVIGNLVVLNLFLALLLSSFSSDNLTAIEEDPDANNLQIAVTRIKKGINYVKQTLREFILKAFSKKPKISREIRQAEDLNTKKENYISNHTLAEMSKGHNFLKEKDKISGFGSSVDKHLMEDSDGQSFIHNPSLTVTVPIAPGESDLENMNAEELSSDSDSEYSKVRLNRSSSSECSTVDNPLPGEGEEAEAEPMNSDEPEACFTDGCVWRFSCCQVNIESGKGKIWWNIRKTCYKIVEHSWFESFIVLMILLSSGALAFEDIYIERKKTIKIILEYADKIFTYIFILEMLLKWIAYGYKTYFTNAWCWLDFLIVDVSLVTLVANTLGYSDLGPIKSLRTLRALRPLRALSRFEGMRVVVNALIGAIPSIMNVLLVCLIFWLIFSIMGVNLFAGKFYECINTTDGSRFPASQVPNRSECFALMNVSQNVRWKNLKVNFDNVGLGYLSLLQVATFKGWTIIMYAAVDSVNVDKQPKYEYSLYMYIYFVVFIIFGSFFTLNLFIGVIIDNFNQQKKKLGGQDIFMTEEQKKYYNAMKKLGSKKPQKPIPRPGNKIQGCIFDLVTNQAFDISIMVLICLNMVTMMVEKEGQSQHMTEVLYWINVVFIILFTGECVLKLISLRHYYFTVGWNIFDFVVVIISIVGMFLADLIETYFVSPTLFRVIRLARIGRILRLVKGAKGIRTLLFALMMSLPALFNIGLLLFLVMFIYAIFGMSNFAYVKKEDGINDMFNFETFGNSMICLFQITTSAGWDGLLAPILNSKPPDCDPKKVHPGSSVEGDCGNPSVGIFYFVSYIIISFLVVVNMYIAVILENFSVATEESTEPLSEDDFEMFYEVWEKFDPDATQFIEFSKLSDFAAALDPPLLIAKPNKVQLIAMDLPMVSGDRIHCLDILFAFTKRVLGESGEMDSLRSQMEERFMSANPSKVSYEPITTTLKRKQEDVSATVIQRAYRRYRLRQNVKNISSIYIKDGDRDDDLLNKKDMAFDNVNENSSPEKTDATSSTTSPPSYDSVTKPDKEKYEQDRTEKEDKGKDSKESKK

[3] = molecular target: T1, Nav 1.7; experiment: Nav 1.7 in vitro PX assay (PatchXpress whole cell voltage clamp); format: cell-based; conditions: HEK 293 cells stably transfected with human Nav1.7; PatchXpress; partially inactivated state;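 note: holding potential set for 20 to 50% inactivation, sodium current evoked by a 20 ms step to −10 mV, peak current inhibition read after compound exposure, 3–5 cells per concentration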

Sequence of Nav 1.5 (Q14524 whole entry): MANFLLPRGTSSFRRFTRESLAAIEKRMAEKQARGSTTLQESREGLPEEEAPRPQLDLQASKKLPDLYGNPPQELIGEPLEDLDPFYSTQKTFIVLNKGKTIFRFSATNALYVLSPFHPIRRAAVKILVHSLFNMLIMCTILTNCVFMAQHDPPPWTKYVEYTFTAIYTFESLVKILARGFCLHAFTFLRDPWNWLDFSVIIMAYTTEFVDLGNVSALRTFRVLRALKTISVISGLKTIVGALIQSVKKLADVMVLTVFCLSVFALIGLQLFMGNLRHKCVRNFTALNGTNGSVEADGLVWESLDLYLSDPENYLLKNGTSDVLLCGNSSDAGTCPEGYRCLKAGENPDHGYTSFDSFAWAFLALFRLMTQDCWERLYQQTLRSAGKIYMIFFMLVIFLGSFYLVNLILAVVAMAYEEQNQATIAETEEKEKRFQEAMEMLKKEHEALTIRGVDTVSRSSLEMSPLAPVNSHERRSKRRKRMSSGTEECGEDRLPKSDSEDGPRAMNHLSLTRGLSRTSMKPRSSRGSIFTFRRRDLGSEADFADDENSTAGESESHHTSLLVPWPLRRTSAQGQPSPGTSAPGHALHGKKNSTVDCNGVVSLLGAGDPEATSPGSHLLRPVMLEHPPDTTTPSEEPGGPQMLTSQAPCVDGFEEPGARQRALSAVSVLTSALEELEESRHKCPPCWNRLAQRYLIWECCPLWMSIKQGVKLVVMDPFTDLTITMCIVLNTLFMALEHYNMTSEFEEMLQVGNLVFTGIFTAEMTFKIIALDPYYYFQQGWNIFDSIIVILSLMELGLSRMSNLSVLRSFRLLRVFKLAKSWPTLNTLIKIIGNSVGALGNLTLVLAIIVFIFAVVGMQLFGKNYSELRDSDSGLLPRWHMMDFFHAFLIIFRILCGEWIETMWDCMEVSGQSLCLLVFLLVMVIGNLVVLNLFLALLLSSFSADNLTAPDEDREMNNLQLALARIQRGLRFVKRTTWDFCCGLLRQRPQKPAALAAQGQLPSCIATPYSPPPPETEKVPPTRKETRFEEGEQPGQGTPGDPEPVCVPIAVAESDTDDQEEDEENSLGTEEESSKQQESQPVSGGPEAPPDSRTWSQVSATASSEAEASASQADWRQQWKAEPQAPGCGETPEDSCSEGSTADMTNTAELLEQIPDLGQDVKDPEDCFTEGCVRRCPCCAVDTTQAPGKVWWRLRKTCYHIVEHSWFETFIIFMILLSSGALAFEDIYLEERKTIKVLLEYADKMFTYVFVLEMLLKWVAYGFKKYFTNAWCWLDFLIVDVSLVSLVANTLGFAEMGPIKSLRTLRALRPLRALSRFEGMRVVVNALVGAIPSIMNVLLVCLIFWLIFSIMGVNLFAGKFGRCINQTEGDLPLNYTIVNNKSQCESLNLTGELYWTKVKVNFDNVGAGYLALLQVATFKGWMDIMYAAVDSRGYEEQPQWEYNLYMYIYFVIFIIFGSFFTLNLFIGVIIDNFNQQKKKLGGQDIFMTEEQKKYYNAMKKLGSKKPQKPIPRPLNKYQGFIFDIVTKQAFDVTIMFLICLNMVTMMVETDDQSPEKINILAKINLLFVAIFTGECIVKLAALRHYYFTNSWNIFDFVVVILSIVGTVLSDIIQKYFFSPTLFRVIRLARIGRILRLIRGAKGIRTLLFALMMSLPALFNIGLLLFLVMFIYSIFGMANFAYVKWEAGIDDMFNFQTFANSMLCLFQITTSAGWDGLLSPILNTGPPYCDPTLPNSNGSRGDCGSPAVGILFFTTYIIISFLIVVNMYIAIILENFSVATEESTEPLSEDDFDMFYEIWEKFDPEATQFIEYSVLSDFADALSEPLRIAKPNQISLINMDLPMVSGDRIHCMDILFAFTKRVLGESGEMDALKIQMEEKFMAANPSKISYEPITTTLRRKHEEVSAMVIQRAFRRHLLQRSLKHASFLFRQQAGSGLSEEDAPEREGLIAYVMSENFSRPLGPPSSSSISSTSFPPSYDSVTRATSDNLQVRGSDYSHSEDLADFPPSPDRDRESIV

1-(2-chloro-3′-fluoro-5-methoxy-4-biphenylyl)-N-2-pyrimidinyl-6-isoquinolinesulfonamide [Example 108]
IC50 ([1]; in-vitro PX data): > 10000 nM | IC50 [2]: 86.2 nM

COc1cc(-c2ccc(F)c(C)n2)c(C)cc1-c1ncnc2cc(S(=O)(=O)Nc3ccon3)ccc12 [Example 33]
IC50 ([1]; in-vitro PX (PatchXpress) data): > 10000 nM

COc1cc(-c2ccc(C)c(F)c2)c(C#N)cc1-c1nccc2cc(S(=O)(=O)Nc3ccon3)ccc12 [Example 81, 1-(2-cyano-3′-fluoro-5-methoxy-4′-methyl-4-biphenylyl)-N-3-isoxazolyl-6-isoquinolinesulfonamide]
IC50 ([1]; PatchXpress (PX), in vitro): > 10000 nM

COc1cc(-c2cc(F)cnc2OC)c(C#N)cc1-c1nccc2cc(S(=O)(=O)Nc3ccon3)ccc12 [Example 83, 1-(5-cyano-4-(5-fluoro-2-methoxy-3-pyridinyl)-2-methoxyphenyl)-N-3-isoxazolyl-6-isoquinolinesulfonamide]
IC50 ([1]; PatchXpress (PX), in vitro): > 10000 nM

COc1cc(-c2cccc(Cl)c2)c(F)cc1-c1nccc2cc(S(=O)(=O)Nc3ccon3)ccc12 [Example 116, 1-(3′-chloro-2-fluoro-5-methoxy-4-biphenylyl)-N-3-isoxazolyl-6-isoquinolinesulfonamide]
IC50 ([1]; in-vitro PX data): > 10000 nM

COc1cc(-c2cc(C)cc(F)c2)c(C#N)cc1-c1nccc2cc(S(=O)(=O)Nc3ccncn3)ccc12 [Example 164, 1-(2-cyano-3′-fluoro-5-methoxy-5′-methyl-4-biphenylyl)-N-4-pyrimidinyl-6-isoquinolinesulfonamide]
IC50 ([1]; in-vitro Nav 1.5 PX data): > 30000 nM

COc1cc(-c2cc(C)c(C)cc2C)c(C#N)cc1-c1nccc2cc(S(=O)(=O)Nc3ccncn3)ccc12 [Example 165, 1-(2-cyano-5-methoxy-2′,4′,5′-trimethyl-4-biphenylyl)-N-4-pyrimidinyl-6-isoquinolinesulfonamide]
IC50 ([1]; in-vitro Nav 1.5 PX data): > 30000 nM

COc1ccc(F)cc1-c1cc(OC)c(-c2ncnc3cc(S(=O)(=O)Nc4ccon4)ccc23)cc1C [Example 191, 4-(5′-fluoro-2′,5-dimethoxy-2-methyl-4-biphenylyl)-N-3-isoxazolyl-7-quinazolinesulfonamide]
IC50 ([1]; in-vitro PX (PatchXpress) data): > 10000 nM

COc1cc(-c2ccc(F)c(Cl)c2)c(C#N)cc1-c1nccc2cc(S(=O)(=O)Nc3nncs3)ccc12 [Example 221, 1-(3′-chloro-2-cyano-4′-fluoro-5-methoxy-4-biphenylyl)-N-1,3,4-thiadiazol-2-yl-6-isoquinolinesulfonamide]
IC50 ([1]; in-vitro PX): > 10000 nM

COc1cc(-c2ccc(Cl)c(F)c2)c(C#N)cc1-c1nccc2cc(S(=O)(=O)Nc3nncs3)ccc12 [Example 224, 1-(4′-chloro-2-cyano-3′-fluoro-5-methoxy-4-biphenylyl)-N-1,3,4-thiadiazol-2-yl-6-isoquinolinesulfonamide]
IC50 ([1]; in-vitro PX): > 10000 nM

COc1cc(-c2cccc(F)c2)c(Cl)cc1-c1ncnc2cc(S(=O)(=O)Nc3ccon3)ccc12 [Example 227, 4-(2-chloro-3′-fluoro-5-methoxy-4-biphenylyl)-N-3-isoxazolyl-7-quinazolinesulfonamide]
IC50 ([1]; in-vitro PX): > 10000 nM

COc1cc(-c2ccc(Cl)c(C)c2)c(C#N)cc1-c1nccc2cc(S(=O)(=O)Nc3nncs3)ccc12 [Example 228, 1-(4′-chloro-2-cyano-5-methoxy-3′-methyl-4-biphenylyl)-N-1,3,4-thiadiazol-2-yl-6-isoquinolinesulfonamide]
IC50 ([1]; in-vitro PX): > 10000 nM

COc1cc(-c2cccc(C(F)(F)F)c2)c(F)cc1-c1nn(C)c(=O)c2cc(S(=O)(=O)Nc3nncs3)ccc12 [Example 234, 1-(2-fluoro-5-methoxy-3′-(trifluoromethyl)-4-biphenylyl)-3-methyl-4-oxo-N-1,3,4-thiadiazol-2-yl-3,4-dihydro-6-phthalazinesulfonamide]
IC50 ([1]; in-vitro PX): > 10000 nM

COc1cc(-c2cc(F)cc(C3CC3)c2)c(C)cc1-c1ncnc2cc(S(=O)(=O)Nc3ccon3)ccc12 [Example 555, 4-(3′-cyclopropyl-5′-fluoro-5-methoxy-2-methyl-4-biphenylyl)-N-3-isoxazolyl-7-quinazolinesulfonamide]
IC50 [3]: 61 nM

COc1cc(-c2cc(C)ccc2F)c(C)cc1-c1ncnc2cc(S(=O)(=O)Nc3ccon3)ccc12 [Example 556, 4-(2′-fluoro-5-methoxy-2,5′-dimethyl-4-biphenylyl)-N-3-isoxazolyl-7-quinazolinesulfonamide]
IC50 [3]: 113 nM

COc1cc(-c2cc(Cl)ccc2F)c(C)cc1-c1ncnc2cc(S(=O)(=O)Nc3ccon3)ccc12 [Example 557, 4-(5′-chloro-2′-fluoro-5-methoxy-2-methyl-4-biphenylyl)-N-3-isoxazolyl-7-quinazolinesulfonamide]
IC50 [3]: 56 nM

COc1cc(-c2cc(Cl)ccc2C)c(C)cc1-c1ncnc2cc(S(=O)(=O)Nc3ccon3)ccc12 [Example 558, 4-(5′-chloro-5-methoxy-2,2′-dimethyl-4-biphenylyl)-N-3-isoxazolyl-7-quinazolinesulfonamide]
IC50 [3]: 41 nM

COc1cc(-c2cc(OC)c(-c3ncnc4cc(S(=O)(=O)Nc5ccon5)ccc34)cc2C)ccc1F [Example 559, 4-(4′-fluoro-3′,5-dimethoxy-2-methyl-4-biphenylyl)-N-3-isoxazolyl-7-quinazolinesulfonamide]
IC50 [3]: 57 nM

COc1cc(F)cc(-c2cc(OC)c(-c3ncnc4cc(S(=O)(=O)Nc5ccon5)ccc34)cc2C)c1 [Example 560, 4-(3′-fluoro-5,5′-dimethoxy-2-methyl-4-biphenylyl)-N-3-isoxazolyl-7-quinazolinesulfonamide]
IC50 [3]: 35 nM

COc1ccc(F)c(-c2cc(OC)c(-c3ncnc4cc(S(=O)(=O)Nc5ccon5)ccc34)cc2C)c1 [Example 561, 4-(2′-fluoro-5,5′-dimethoxy-2-methyl-4-biphenylyl)-N-3-isoxazolyl-7-quinazolinesulfonamide]
IC50 [3]: 89 nM

COc1cc(-c2cccc(F)c2F)c(C)cc1-c1ncnc2cc(S(=O)(=O)Nc3ccon3)ccc12 [Example 562, 4-(2′,3′-difluoro-5-methoxy-2-methyl-4-biphenylyl)-N-3-isoxazolyl-7-quinazolinesulfonamide]
IC50 [3]: 90 nM

COc1cc(-c2ccc(F)cc2F)c(C)cc1-c1ncnc2cc(S(=O)(=O)Nc3ccon3)ccc12 [Example 563, 4-(2′,4′-difluoro-5-methoxy-2-methyl-4-biphenylyl)-N-3-isoxazolyl-7-quinazolinesulfonamide]
IC50 [3]: 105 nM

COc1cc(-c2cc(F)ccc2F)c(C)cc1-c1ncnc2cc(S(=O)(=O)Nc3ccon3)ccc12 [Example 564, 4-(2′,5′-difluoro-5-methoxy-2-methyl-4-biphenylyl)-N-3-isoxazolyl-7-quinazolinesulfonamide]
IC50 [3]: 94 nM

COc1cc(-c2c(F)cccc2F)c(C)cc1-c1ncnc2cc(S(=O)(=O)Nc3ccon3)ccc12 [Example 565, 4-(2′,6′-difluoro-5-methoxy-2-methyl-4-biphenylyl)-N-3-isoxazolyl-7-quinazolinesulfonamide]
IC50 [3]: 199 nM

COc1cc(-c2ccc3c(c2)CCC3)c(C)cc1-c1ncnc2cc(S(=O)(=O)Nc3ccon3)ccc12 [Example 566, 4-(4-(2,3-dihydro-1H-inden-5-yl)-2-methoxy-5-methylphenyl)-N-3-isoxazolyl-7-quinazolinesulfonamide]
IC50 [3]: 169 nM

COc1cc(-c2cccc(F)c2)ccc1-c1c(=O)n(C)cc2cc(S(=O)(=O)Nc3ccon3)ccc12 [Example 589, 4-(3′-fluoro-3-methoxy-4-biphenylyl)-N-3-isoxazolyl-2-methyl-3-oxo-2,3-dihydro-7-isoquinolinesulfonamide]
IC50 [3]: 533 nM
